Measurements: patent publication US8735414B2 (priority 2009, dated 2014)

What was measured:
[1] = test system: bicistronic HCV replicon (replicon RNA, GenBank Accession No. AJ242654); experiment: HCV Replicon Assay; assay type: cell-based; settings: Hepatitis C virus, 72 h, read-out: Replicon IC50

| Structure (SMILES) | melting point [°C] | IC50 [1] [µM] |
| --- | --- | --- |
| CCc1cc2c(cc1F)c(C(N)=O)c(-c1ccc(S(=O)(=O)NC(C)(C)C(F)(F)F)cn1)n2C1CCCC1 [compound 871, 1-cyclopentyl-6-ethyl-5-fluoro-2-{5-[(1,1,1-trifluoro-2-methylpropan-2-yl)sulfamoyl]pyridin-2-yl}-1H-indole-3-carboxamide] | 185 to 188 | < 0.5 |
| CCc1cc2c(cc1F)c(C(N)=O)c(-c1ccc(NS(=O)(=O)C(C)(C)C)nc1)n2C1CCCCC1 [compound 1037, 2-{6-[(tert-butylsulfonyl)amino]pyridin-3-yl}-1-cyclohexyl-6-ethyl-5-fluoro-1H-indole-3-carboxamide] | 297 to 299 | < 0.5 |
| Cc1ccc2c(C#N)c(-c3ccc(S(=O)(=O)N[C@@H](C)C(F)(F)F)cn3)n(-c3ccccn3)c2c1 [compound 476, 6-[3-cyano-6-methyl-1-(pyridin-2-yl)-1H-indol-2-yl]-N-[(2S)-1,1,1-trifluoropropan-2-yl]pyridine-3-sulfonamide] | 199 to 203 | < 0.5 |
| CC(C)Sc1ccc2c(C#N)c(-c3ccc(S(=O)(=O)N4CCCCC4)cn3)n(C3CCC3)c2c1 [compound 22, 1-cyclobutyl-2-[5-(piperidin-1-ylsulfonyl)pyridin-2-yl]-6-(propan-2-ylsulfanyl)-1H-indole-3-carbonitrile] | 169 to 171 | 0.5 to 2 |
| CCCS(=O)(=O)Nc1ccc(-c2c(C#N)c3ccc(Oc4nccnc4C#N)cc3n2C2CCC2)nc1 [compound 273, N-(6-{3-cyano-6-[(3-cyanopyrazin-2-yl)oxy]-1-cyclobutyl-1H-indol-2-yl}pyridin-3-yl)propane-1-sulfonamide] | 252 to 254 | < 0.5 |
| N#Cc1c(-c2ccc(S(=O)(=O)NC(CF)CF)cn2)n(-c2ccccn2)c2ccc(F)cc12 [compound 96, 6-[3-cyano-5-fluoro-1-(pyridin-2-yl)-1H-indol-2-yl]-N-(1,3-difluoropropan-2-yl)pyridine-3-sulfonamide] | 170 to 172 | < 0.5 |
| CC(C)n1c(-c2ccc(NS(=O)(=O)C(C)(C)C)nc2)c(C#N)c2ccc(OC(F)F)cc21 [compound 299, N-{5-[3-cyano-6-(difluoromethoxy)-1-(propan-2-yl)-1H-indol-2-yl]pyridin-2-yl}-2-methylpropane-2-sulfonamide] | 263 to 264 | 2 to 5 |
| N#Cc1c(-c2ccc(S(=O)(=O)NC(CF)CF)cn2)n(CC2CC2)c2cc(Cl)ccc12 [compound 62, 6-[6-chloro-3-cyano-1-(cyclopropylmethyl)-1H-indol-2-yl]-N-(1,3-difluoropropan-2-yl)pyridine-3-sulfonamide] | 223 to 227 | < 0.5 |
| COc1ccc2c(C#N)c(-c3ncc(S(=O)(=O)N[C@@H](C)C4CC4)cn3)n(C3CCCC3)c2c1 [compound 206, 2-(3-cyano-1-cyclopentyl-6-methoxy-1H-indol-2-yl)-N-[(1S)-1-cyclopropylethyl]pyrimidine-5-sulfonamide] | 192 to 194 | 0.5 to 2 |
| Cc1cc2c(cc1O)c(C#N)c(-c1ccc(S(=O)(=O)N[C@H](C)C(F)(F)F)cn1)n2C1CCC1 [compound 807, 6-(3-cyano-1-cyclobutyl-5-hydroxy-6-methyl-1H-indol-2-yl)-N-[(2R)-1,1,1-trifluoropropan-2-yl]pyridine-3-sulfonamide] | 209 to 210 | < 0.5 |
| CCc1cc2c(cc1F)c(C(N)=O)c(-c1ccc(NS(=O)(=O)C(C)(C)C)nc1)n2[C@H](C)C1CC1 [compound 1104, 2-{6-[(tert-butylsulfonyl)amino]pyridin-3-yl}-1-[(1R)-1-cyclopropylethyl]-6-ethyl-5-fluoro-1H-indole-3-carboxamide] | 255.5 to 259 | < 0.5 |
| CCc1cc2c(cc1F)c(C(N)=O)c(-c1ccc(S(=O)(=O)NC3(C(F)(F)F)CC3)cn1)n2C1CCCC1 [compound 872, 1-cyclopentyl-6-ethyl-5-fluoro-2-(5-{[1-(trifluoromethyl)cyclopropyl]sulfamoyl}pyridin-2-yl)-1H-indole-3-carboxamide] | 196 to 197 | < 0.5 |
| N#Cc1c(-c2ccc(S(N)(=O)=O)cn2)n(CC2CC2)c2cc(OC(F)F)c(F)cc12 [compound 812, 6-[3-cyano-1-(cyclopropylmethyl)-6-(difluoromethoxy)-5-fluoro-1H-indol-2-yl]pyridine-3-sulfonamide] | 173 to 178 | 2 to 5 |
| COc1ccc2c(c1)c(C#N)c(-c1ncc(S(=O)(=O)N[C@@H](C)C(F)(F)F)cn1)n2C1CCC1 [compound 569, 2-(3-cyano-1-cyclobutyl-5-methoxy-1H-indol-2-yl)-N-[(2S)-1,1,1-trifluoropropan-2-yl]pyrimidine-5-sulfonamide] | 203 to 205 | 0.5 to 2 |
| N#Cc1c(-c2ccc(S(=O)(=O)NC(CF)CF)cn2)n(-c2ccccc2F)c2cc(OC(F)F)ccc12 [compound 227, 6-[3-cyano-6-(difluoromethoxy)-1-(2-fluorophenyl)-1H-indol-2-yl]-N-(1,3-difluoropropan-2-yl)pyridine-3-sulfonamide] | 188 to 191 | < 0.5 |
| COc1ccc2c(c1)c(C#N)c(-c1ncc(S(=O)(=O)NC(CF)CF)cn1)n2C1CCCC1 [compound 572, 2-(3-cyano-1-cyclopentyl-5-methoxy-1H-indol-2-yl)-N-(1,3-difluoropropan-2-yl)pyrimidine-5-sulfonamide] | 200 to 202 | < 0.5 |
| C[C@H](NS(=O)(=O)c1ccc(-c2c(C#N)c3ccc(OC(F)F)cc3n2C2CCCCC2)nc1)C(F)(F)F [compound 341, 6-[3-cyano-1-cyclohexyl-6-(difluoromethoxy)-1H-indol-2-yl]-N-[(2S)-1,1,1-trifluoropropan-2-yl]pyridine-3-sulfonamide] | 149 to 151 | < 0.5 |
| CCc1cc2c(cc1F)c(C#N)c(-c1ccc(S(=O)(=O)N[C@@H](C)C(F)(F)F)cn1)n2-c1cccc(C)c1 [compound 1009, 6-[3-cyano-6-ethyl-5-fluoro-1-(3-methylphenyl)-1H-indol-2-yl]-N-[(2S)-1,1,1-trifluoropropan-2-yl]pyridine-3-sulfonamide] | 193 to 198 | < 0.5 |
| C[C@@H](NS(=O)(=O)c1ccc(-c2c(C#N)c3ccc(Cl)cc3n2C2CCCCC2)nc1)C(F)(F)F [compound 514, 6-(6-chloro-3-cyano-1-cyclohexyl-1H-indol-2-yl)-N-[(2R)-1,1,1-trifluoropropan-2-yl]pyridine-3-sulfonamide] | 218 to 223 | < 0.5 |
| Cc1c(F)cc2c(c1F)c(C#N)c(-c1ccc(S(=O)(=O)N[C@@H](C)C(F)(F)F)cn1)n2C1CCCC1 [compound 559, 6-(3-cyano-1-cyclopentyl-4,6-difluoro-5-methyl-1H-indol-2-yl)-N-[(2S)-1,1,1-trifluoropropan-2-yl]pyridine-3-sulfonamide] | 218 to 224 | < 0.5 |
| Cc1cc2c(cc1F)c(C(N)=O)c(-c1ccc(S(=O)(=O)NC(C)(C)C(F)(F)F)cn1)n2C1CCOCC1 [compound 768, 5-fluoro-6-methyl-1-(tetrahydro-2H-pyran-4-yl)-2-{5-[(1,1,1-trifluoro-2-methylpropan-2-yl)sulfamoyl]pyridin-2-yl}-1H-indole-3-carboxamide] | 200 to 206 | < 0.5 |
| Cc1cc2c(cc1F)c(C(=O)O)c(-c1ccc(S(=O)(=O)NC3(C(F)(F)F)CC3)cn1)n2C1CCCCC1 [compound 835, 1-cyclohexyl-5-fluoro-6-methyl-2-(5-{[1-(trifluoromethyl)cyclopropyl]sulfamoyl}pyridin-2-yl)-1H-indole-3-carboxylic acid] | 205 to 213 | < 0.5 |
| Cc1ccc2c(C#N)c(-c3ccc(S(=O)(=O)NC(CF)CF)cn3)n(C3CCCCC3)c2c1 [compound 513, 6-(3-cyano-1-cyclohexyl-6-methyl-1H-indol-2-yl)-N-(1,3-difluoropropan-2-yl)pyridine-3-sulfonamide] | 195 to 203 | < 0.5 |
| Cc1cc2c(cc1F)c(C(N)=O)c(-c1ccc(S(=O)(=O)N[C@@H](C)C(F)(F)F)cn1)n2C1CCC1 [compound 737, 1-cyclobutyl-5-fluoro-6-methyl-2-(5-{[(2S)-1,1,1-trifluoropropan-2-yl]sulfamoyl}pyridin-2-yl)-1H-indole-3-carboxamide] | 190 to 194 | < 0.5 |
| N#Cc1c(-c2ncc(S(=O)(=O)NC(CF)CF)cn2)n(C2CCC2)c2cc(Cl)ccc12 [compound 176, 2-(6-chloro-3-cyano-1-cyclobutyl-1H-indol-2-yl)-N-(1,3-difluoropropan-2-yl)pyrimidine-5-sulfonamide] | 243 to 246 | < 0.5 |
| COc1ccc2c(C#N)c(-c3ccc(S(=O)(=O)N[C@H](C)C(F)(F)F)cn3)n(C3CCCC3)c2c1 [compound 431, 6-(3-cyano-1-cyclopentyl-6-methoxy-1H-indol-2-yl)-N-[(2R)-1,1,1-trifluoropropan-2-yl]pyridine-3-sulfonamide] | 209 to 216 | < 0.5 |
| Cc1cc2c(cc1Cl)c(C(N)=O)c(-c1ccc(S(=O)(=O)N[C@H](C)C(F)(F)F)cn1)n2C1CCC1 [compound 735, 5-chloro-1-cyclobutyl-6-methyl-2-(5-{[(2R)-1,1,1-trifluoropropan-2-yl]sulfamoyl}pyridin-2-yl)-1H-indole-3-carboxamide] | 208 to 210 | < 0.5 |
| N#Cc1c(-c2ncc(S(=O)(=O)NC(CF)CF)cn2)n(C2CCCC2)c2cc(OC(F)F)ccc12 [compound 233, 2-[3-cyano-1-cyclopentyl-6-(difluoromethoxy)-1H-indol-2-yl]-N-(1,3-difluoropropan-2-yl)pyrimidine-5-sulfonamide] | 199 to 201 | < 0.5 |
